The results in this text go back to a melting point compilation (Tetko et al.; mined from patent text by program, amines drawn as free bases though some values may be those of a salt).

Where only a bound is given, the exact number is not on record here.

One may read the melting point as the temperature, or range, at which the solid turns liquid. For `CCC(=O)NNC(=O)NCCOc1ccccc1`, the melting point lay in the range of 178 to 183 °C. The result for `CC(C)c1nc(CC(=O)O)c(-c2ccco2)o1` reads 108 to 109 °C; that for `C#CCNC(=C[N+](=O)[O-])SC`, 131 to 132 °C.

Molecule `CC1(C)CCNC(=O)C(Cl)(Cl)C1` returned a melting point of 108 to 110 °C. In the case of `COc1cc(OC)nc(C2(O)OC(=O)c3c2ccnc3C)n1` (centres undefined) it was 203 to 204 °C. With `O=S(=O)(NC1CCC(O)CC1)c1cccc2ccccc12` (centres undefined), the melting point stood at 174 °C.

In turn, `COc1cc(NC(N)=O)c2c(c1)OC(C)C2` (centres undefined) returned a melting point of 204 °C.

`CCc1cc(C)c(Br)c(CC)c1-c1c(O)c(C)nn(C)c1=O` returned a melting point of 235 to 236 °C. The result for `CC(=O)N[C@@H](C)COc1ccc2nc(-c3cc(F)c(OCC4CC4)c(F)c3)oc2c1F` reads 146 to 147 °C. Molecule `CCOC1=NS(=O)(=O)c2ccc([N+](=O)[O-])cc21` returned a melting point of 151 to 154 °C.

Take `CC(=O)c1cc(C#N)c(=O)[nH]c1-c1ccncc1`: the melting point lay in the range of 255 to 257 °C. The molecule `CC(C)c1nc(CCCOCc2ccccc2)[nH]c1Sc1cc(Cl)cc(Cl)c1` yielded a melting point of 118 to 119 °C.

For `O=C(O)c1cc(-c2ccccc2)c2ccccc2n1`, the melting point was in the range of 170 to 171 °C.

The molecule `N#Cc1cccc(Oc2c(-c3ccccc3)cccc2-c2ccccc2)c1C#N` had a melting point of 129 to 130 °C.

Molecule `COC(=O)c1cc(OC)c(OCCCN)cc1[N+](=O)[O-]` returned a melting point of 101 to 103 °C.

In turn, `CC(CN(C)C)Oc1ccc(-c2nn(CC(=O)O)c3ncccc23)cc1` (centres undefined) showed a melting point of 210 to 211 °C.

`COc1ccc2c(c1)CCN(C(=O)Cc1ccc([N+](=O)[O-])cc1)C2C` (centres undefined) had a melting point of 112 to 114 °C. In the case of `COc1cc2c(cc1OC)C(=C(C#N)SCC(CN1CCOCC1)OC(=O)c1ccccc1)NCC2` (centres undefined), the melting point was found to be 144 °C. In the case of `Cc1ccc(Cc2cnc(NCCCNc3ncccc3C)[nH]c2=O)cn1` it was 119 to 123 °C. Molecule `CSc1ccc(C(=O)Cc2cccc(F)c2)cc1` yielded a melting point of 94.5 to 95.5 °C. In the case of `O=C(CCN1CCN(c2cccc(C(F)(F)F)c2)CC1)c1ccc2c(c1)Cc1cc(C(=O)CCN3CCN(c4cccc(C(F)(F)F)c4)CC3)ccc1O2` it was 155 to 157 °C; in that of `C=CCOC1=C(O)[C@@H](CC/C=C\CCCCCCCCCCCCCC)OC1=O`, 49 to 53 °C; in that of `Cc1nc(N2CC(Cc3ccccc3)CC2=O)sc1C(=O)NCc1ccccc1` (centres undefined), 143 to 144 °C. Take `COc1cc(C=CC(=O)c2cccc(N(C)C)c2)cc(OC)c1`: the melting point lay within 81.8 to 82.6 °C. With `COc1cccc2c1OC(CO)CN2` (centres undefined), the melting point fell in the range of 108 to 110 °C. The result for `COc1ncccc1NC(=NC#N)NC(NC(=O)c1cc(F)cc(F)c1)C(C)(Cl)Cl` (centres undefined) reads 125 to 126 °C; that for `Cc1cc(SC#N)c(C(C)(C)C)cc1O`, 99 to 102 °C; that for `Cc1cc(-c2ccc3nnn(Cc4ccc5ncccc5c4)c3n2)ccc1C(N)=O`, 235 to 237 °C. In turn, `COc1ccc(-c2c([N+](=O)[O-])c3ccc(OC)cc3c(=O)n2CC#N)cc1` yielded a melting point of 194 to 196 °C.

In turn, `CCOC(=O)c1cc2c3n(ccc-2n1)CC(C(OCC)OCC)=N3` yielded a melting point of 242 to 244 °C. The molecule `CC(C)C(=O)NCc1cccc2c1C(=O)N(C1CCC(=O)NC1=O)C2=O` (centres undefined) had a melting point of 218 to 220 °C. Regarding `Fc1ccc(-c2[nH]cc(CCCN3CCNCC3)c2-c2ccncc2)cc1`, the melting point lay within 162 to 164 °C.

Take `OC[C@H]1O[C@@H](n2cnc3c(N[C@H]4CC[C@H](O)CC4)nc(Cl)nc32)[C@H](O)[C@@H]1O`: the melting point lay within 203 to 204 °C. The result for `COC(=O)c1cc(-c2ccccc2)c(=O)n2c1-c1sccc1CN2C` reads 180 to 181 °C. The result for `COCC1(F)CCN(c2ccc(N3C[C@H](CNC(C)=O)OC3=O)cc2F)CC1` reads 169 to 171 °C; that for `CCn1c(=O)n(O)c(=O)c2c(F)c(F)c(N3CCCC3)c(F)c21`, 223 to 225 °C. For the molecule `Cn1cc(-c2cc3cccnc3[nH]2)c2cc(N)ccc21`, the melting point was 247 to 248 °C. The result for `Nc1ccc2c(c1)CC(NS(=O)(=O)c1ccccc1)C2` (centres undefined) reads 105 to 107 °C. In the case of `COc1ccc(-c2ccc(NC(=O)OC(C)(C)C)c([N+](=O)[O-])c2)cc1` it was 107 to 109 °C. `COc1ncnc(OC)c1NC(=O)c1cccs1` registered a melting point of 198 to 200 °C. In the case of `CN(C)CCCNC1c2ccccc2C(=O)N1c1ccc2ccc(Cl)nc2n1` (centres undefined) it was 143 °C; in that of `CCC(C)c1ccccc1SC1=C(O)CC(c2ccccc2)(c2ccccc2)OC1=O` (centres undefined), 161 to 162 °C. As for `CCCc1nc2c(N)nc3ccccc3c2n1CC1(O)CCSCC1`, the melting point is 243 to 244 °C. In the case of `Cc1ccccc1N1CCc2c(N)nc3c(C)cccc3c21` it was 173 to 174 °C. Regarding `COc1ccccc1C(=O)Nc1ccc(COc2ccc3c(c2)CCC(CN(C)C)C3)cc1` (centres undefined), the melting point lay in the range of 106 to 108 °C.

As for `Cc1nc(C)c(Cl)c(NCc2nccc(SCCCCSCc3ccncc3)c2C)n1`, the melting point is 104 to 106 °C. The result for `COc1cc(Cl)c2c(c1)C=C(C(=O)O)C(C(F)(F)F)O2` (centres undefined) reads 204 to 207 °C. The result for `O=C(O)CCCOc1ccc(CNC(=O)C2Cc3ccccc3N2S(=O)(=O)c2ccc(-c3cccc(C(F)(F)F)c3)cc2)cc1` (centres undefined) reads 78 to 80 °C; that for `O=C(NCCO)c1cccc(-c2cccc3nn(Cc4cccc(F)c4)cc23)c1`, 187 to 188 °C. Consider `CCCc1nn(C)c2c(=O)[nH]c(-c3cc(C(=O)CBr)ccc3OCC)nc12`, for which the melting point was 159 to 160 °C. The result for `C=C(c1c(C#N)nn(-c2c(Cl)cc(C(F)(F)F)cc2Cl)c1N)C(F)(F)F` reads 147 to 148 °C. Consider `COc1cc(C2CCN(CC(N)=O)CC2)ccc1Nc1ncc2ccc(-c3ccccc3N(C)S(C)(=O)=O)n2n1`, for which the melting point lay within 103 to 112 °C.

In turn, `CN1CCC(=O)C(C(c2ccc(F)cc2)c2ccc(F)cc2)C1` (centres undefined) had a melting point of 127 to 129 °C. The result for `COc1ccc(CCN2CCCC(CO)C2)cc1OC` (centres undefined) reads 87.5 to 89 °C; that for `Cc1cc(Cl)ccc1NS(=O)(=O)c1cc(S(=O)(=O)Nc2ccc(Cl)cc2C)c2cc(O)ccc2c1`, 140 to 142 °C. The molecule `CC1(C)COC(=O)N1c1nc(-c2ccc(C#N)c(F)c2)cs1` came in with a melting point of 204 to 206 °C. The result for `COc1cccc2c1OCC(/C=C/C=C/C=C/C(=O)O)=C2` reads 226 to 228 °C; that for `Cn1c(/C=C/[N+](=O)[O-])cc2cccc(F)c21`, 153 to 156 °C; that for `CNS(=O)(=O)c1cc2ccccc2cc1CC(=O)O`, 185 to 186 °C. The result for `CCCCCCCCCCCCCCOc1ccc(OCc2ccccc2)c(C(=O)O)c1` reads 73 to 74 °C; that for `CN(C)c1ccc(-c2cc(F)c(F)cc2-c2ccc(S(C)(=O)=O)cc2)cc1Cl`, 129 to 130 °C. On to `COc1ccc(CCc2oc3ccc(C#N)cc3c2C(C)=O)cc1`, for which the melting point is 130 to 131 °C.

In turn, `CN=C(NC#N)NCCSCc1ncccc1O` gave a melting point of 146 to 148 °C. The result for `O=Cc1cn(Cc2ccc(Cl)cc2)c2ccccc12` reads 122 °C; that for `CCn1cc(C(=O)O)c(=O)c2cc(F)c(N3CCC(CNC4CC4)C3)nc21` (centres undefined), 271 to 274 °C; that for `CCCNC(=O)C(C)Cc1ccc2cccc(Cc3ccc(C(=O)NS(=O)(=O)c4ccccc4)cc3OC)c2c1` (centres undefined), 214 to 218 °C. Molecule `COc1cccc(Oc2ccc([N+](=O)[O-])c(C(=O)O)c2)c1` showed a melting point of 146 to 151 °C. In the case of `CCOC(=O)COC1CC(C)(C)N(O)C(C)(C)C1` it was 41 to 43 °C. In the case of `COc1cccc2c1CN(Nc1ccncc1)C2`, the melting point was in the range of 144 to 146 °C. For the molecule `O=C(O)CNc1ccc2ccccc2c1`, the melting point lay within 219 to 221 °C.

For `COc1ccc2c(c1)c(-c1cc3nccnc3[nH]1)cn2CC(=O)N1CCOCC1`, the melting point fell in the range of 263 to 267 °C. In the case of `CCOc1ccc([N+](=O)[O-])c(Nc2ccc(OC)cc2)c1` it was 109 °C. As for `OC1(c2cccc(C(F)(F)F)c2)CCN(CCc2ccc3ncccc3c2)CC1`, the melting point was in the range of 140 to 142 °C.

For the molecule `O=C(O)C1CC1c1cc(=O)c2cc(-c3ccccc3)ccc2o1` (centres undefined), the melting point lay in the range of 226 to 228 °C. Consider `O=Cc1nn(-c2ccc(O)cc2)c2c1CCCC2Cc1cccc2ccccc12` (centres undefined), for which the melting point is over 260 °C. Take `CCCN(C1=C(O)CC(CCc2ccc(O)cc2)(C2CCCC2)OC1=O)c1ccccc1` (centres undefined): the melting point is 95 °C. The result for `CCCCCCCCCCC1(CCCCCCCCCC)c2cc(C=O)ccc2-c2ccc(N(c3ccccc3)c3ccccc3)cc21` reads 77 to 78.5 °C. The molecule `O=C(O)CCC1CNC(=O)CC1c1ccc(F)cc1` (centres undefined) yielded a melting point of 139 to 141 °C. Molecule `CN1CCC(O)(c2ccccc2F)CC1` registered a melting point of 127 to 129 °C.

For the molecule `NS(=O)(=O)C1=CC2=C(OCCO)CCS(=O)(=O)C2S1` (centres undefined), the melting point lay within 159 to 164 °C.

Turning to `Cc1cc(C(=O)NC(CCC(=O)OC(C)(C)C)C(=O)O)ccc1-c1c2cc(F)c(=O)cc-2oc2cc(O)c(F)cc12` (centres undefined), the melting point fell in the range of 134 to 138 °C.

In turn, `COc1ccc(Nc2ccc(Nc3ncnc4ccsc34)cc2)cc1` registered a melting point of 181 to 186 °C. As to `Cn1cc2c(O)cc(-c3ccccc3)nc2n1`, the melting point was 241 to 243 °C. Molecule `CCCN(C1=C(O)C[C@@](CCc2cccc(O)c2)(C2CCCC2)OC1=O)c1ccccc1` returned a melting point of 74 to 76 °C. In the case of `O=C(C=Cc1ccc(Cl)cc1)NC1CCCNC(=O)C1` (centres undefined) it was 256 to 257 °C. For `CCCc1ccc(C2c3c(C)c(N)c(C)c(C)c3OC2(C)C)cc1` (centres undefined), the melting point is 68 to 69 °C. Turning to `CCOC(=O)c1cn(C(C)CSc2ccccc2)c2nc(F)c(Cl)cc2c1=O` (centres undefined), the melting point was 70 °C. In the case of `O=C(NO)C1(NS(=O)(=O)c2ccc(OCc3ccc(Cl)cc3Cl)cc2)CC1c1ccccc1` (centres undefined), the melting point was in the range of 164 to 169 °C. The molecule `Cc1cc(-c2cn[nH]c2N)cc(C)n1` displayed a melting point of 222 °C.
